For this assay, the system named is rats. The assay can be described thus: Morris water maze. Type of assay: in vivo, rat. As for the experimental part: The potential of MP-III-022 to affect cognitive performance of rats was assessed in 2 well-validated behavioral models. First, Morris water maze experiments were performed in a 2 m diameter circular pool filled to a height of 30 cm with water at 22±1° C. The escape platform (15 cm×10 cm) was submerged 2 cm below the water surface. All experimental details were as described in Savic et al. (Int. J. Neuropsychopharmacol. 2009, 12, 1179-1193). On each of the five consecutive days rats were given one swimming block, consisting of four trials. For each trial the rat was placed in the water at one of four pseudo-randomly determined starting positions. Once the rat has found and mounted the escape platform it was permitted to remain on the platform for 15 s. […] During the acquisition phase, treatments were applied once daily before the swimming block. On the sixth day, rats were given a treatment-free probe test (60 s) without the platform. The probe test was started from the novel, most distant location. Dependent variables chosen for tracking during the acquisition trials were: escape latency (s), total distance traveled (m), path efficiency (the ratio of the shortest possible path length to actual path length), % of distance swam in the peripheral annulus and mean speed (m/s). The selected parameters in the probe test were the distance swam in the target zone […] and % of the distance swam in the peripheral annulus. We tested the effects of 1, 2.5 and 10 mg/kg MP-III-022 and 2 mg/kg diazepam as control drug. The doses of MP-III-022 were selected so that they elicit a mild, moderate and strong positive modulation of α5GABAARs, respectively, in accordance with the analysis of thorough pharmacokinetic and electrophysiological data presented in Stamenic et al. (Eur. J. Pharmacol. 2016, 791, 433-443). The data from the acquisition days in the Morris water maze were averaged for each rat (total data/total number of trials per day) and analyzed using two-way ANOVA with repeated measures (factors: Treatment and Days) with Days as the repeated measure. In the case of significant interaction, separate one-way ANOVAs were conducted to assess the influence of treatment within individual levels of factor Days. The data from the probe test were assessed using one-way ANOVA.

Experimental findings from patent US10906909B2, “Treatment of cognitive and mood symptoms in neurodegenerative and neuropsychiatric disorders with ALPHA5-containing GABAA receptor agonists” (UWM Research Foundation, Inc., priority 2016, dated 2021) are described below.

Structures are written as SMILES.

With `C#Cc1ccc2c(c1)C(c1ccccc1F)=N[C@H](C)c1c(C(=O)NC)ncn1-2` [MP-III-022], the “spatial learning and memory (water maze, probe test)” value reads like this: (1 mg/kg) “significant improvement in spatial learning and memory processes”; (high doses) “mimic the cognitive disruption effect of diazepam”. Further, the “escape latency, distance, distance in peripheral ring, path efficiency (acquisition)” value (1 mg/kg vs 2 mg/kg diazepam and 10 mg/kg MP-III-022 groups) is “shorter escape latencies, shorter distances, swam less distance in the peripheral ring and had higher path efficiencies”. The “path efficiency on Day II” value (1 mg/kg, Day II of acquisition) was “higher path efficiencies compared to the control and all other treatment groups”. For the same compound, the “spatial learning during acquisition in the water maze” value (MP-III-022 10 mg/kg once daily before swimming block) is “spatial learning incapacitation indistinguishable from that induced by diazepam 2 mg/kg”.
